Experimental data reported in patent publication US20070110804A1, “Drug polymer complexes” (ROYER BIOMEDICAL, INC., priority 2003, published 2007).
≈ marks a conversion by molar mass, not a printed value. Like-named read-outs stand apart in the source and are kept apart here.

Experiments:
[1] = Formation of a low-solubility polymer/drug complex (gel) on mixing polyanion sodium salt with the salt of the active ingredient
Text: A “yes” entry means that a complex of low solubility forms on mixing the sodium salt of the polymers and the salt of the active ingredient.

[2] = In vitro release profile of the drug polymer complex in PBS at 37° C.; type: physicochemical; settings: ½ dextran sulfate Mw 40,000 (40,000-50,000) and ½ Mw 500,000, FIG. 6
Protocol: Release profile: Dextran sulfate/amikacin wet gel (100 mg) was placed in 2 ml centrifuge tube. PBS buffer (500 μl) was added to the centrifuged tube. After incubation at 37° C. for 24 hrs, the mixture was centrifuged at 13,000 RPM for 5 minutes. The supernatant was removed and analyzed microbiologically for the presence of drug. The process was repeated at 24 hr intervals for 31 days. The amount of released drug in the eluate was calculated from a standard curve.
The release profile is illustrated in FIG. 1. The release profiles for the compounds of the other Figures were generated in a similar manner.

[3] = Distribution of amikacin between gelatinous precipitate and supernatant on mixing amikacin sulfate with dextran sulfate (Na); type: physicochemical; settings: amikacin sulfate solution mixed with dextran sulfate (Na) solution
Text: As part of the normal preparation of a solid dosage form based on calcium sulfate, a solution of amikacin sulfate was mixed with a solution of dextran sulfate (Na).

[4] = tested on: S. Aureus; settings: cited from earlier work
[5] = tested on: E. Coli; settings: cited from earlier work
[6] = tested on: Enterobacter spp.; settings: cited from earlier work
[7] = tested on: P. Aeruginosa; settings: cited from earlier work
[8] = mixing sodium salt of CMC-L (low viscosity carboxymethylcellulose) and salt of the active ingredient
[9] = mixing sodium salt of CMC-M (medium viscosity carboxymethylcellulose) and salt of the active ingredient
[10] = mixing sodium salt of Dextran Sulfate-500 and salt of the active ingredient

Compound | complex of low solubility forms (yes/no), polymer CMC-L [1, 8] | complex of low solubility forms (yes/no), polymer CMC-M [1, 9] | complex of low solubility forms (yes/no), polymer Dextran Sulfate-500 [1, 10] | complex of low solubility forms (yes/no), polymer Dextran Sulfate-500 [1] | other results
COc1cccc2c1C(=O)c1c(O)c3c(c(O)c1C2=O)C[C@@](O)(C(=O)CO)C[C@@H]3O[C@H]1C[C@H](N)[C@H](O)[C@H](C)O1 [Doxorubicin] | yes | yes | yes | – | –
Neomycin | no | no | yes | – | –
CN1CCc2cccc3c2[C@H]1Cc1ccc(O)c(O)c1-3 [Apomorphine] | – | – | yes | – | –
CC[C@H]1OC(=O)[C@H](C)[C@@H](O[C@H]2C[C@@](C)(OC)[C@@H](O)[C@H](C)O2)[C@H](C)[C@@H](O[C@@H]2O[C@H](C)C[C@H](N(C)C)[C@H]2O)[C@](C)(O)C[C@@H](C)C(=O)[C@H](C)[C@@H](O)[C@]1(C)O [Erythromycin] | – | – | – | yes | complex of low solubility forms (yes/no), polymer CMC-L [1]: no; complex of low solubility forms (yes/no), polymer CMC-M [1]: no
COc1ccc2c3c1O[C@H]1C(=O)CC[C@@]4(O)[C@@H](C2)N(C)CC[C@]314 [Oxycodone] | – | – | yes | – | release rate compared to all (500,000) dextran sulfate complex [2]: increases the release rate; release rate compared to all (500,000) dextran sulfate complex ([2]; listed as oxycodone): accelerated
CCCCOc1cc(C(=O)NCCN(CC)CC)c2ccccc2n1 [Dibucaine] | yes | yes | yes | – | –
CN(C)CCCN1c2ccccc2Sc2ccc(Cl)cc21 [Chlorpromazine] | – | – | – | yes | complex of low solubility forms (yes/no), polymer CMC-L [1]: yes; complex of low solubility forms (yes/no), polymer CMC-M [1]: yes
NCC[C@H](O)C(=O)N[C@@H]1C[C@H](N)[C@@H](O[C@H]2O[C@H](CN)[C@@H](O)[C@H](O)[C@H]2O)[C@H](O)[C@H]1O[C@H]1O[C@H](CO)[C@@H](O)[C@H](N)[C@H]1O [Amikacin] | – | – | – | yes | complex of low solubility forms (yes/no), polymer CMC-L [1]: no; amikacin included in the gelatinous precipitate [3]: > 90%; amikacin remaining in the supernatant [3]: < 10%; MIC [4]: 1 µg/mL (≈ 1.71 µM); MIC [5]: 2 µg/mL (≈ 3.42 µM); MIC [6]: 2 µg/mL (≈ 3.42 µM); MIC [7]: 2 µg/mL (≈ 3.42 µM)
CCCNC(C)C(=O)Nc1ccccc1C (stereo not drawn) [Prilocaine] | – | – | – | yes | –
CN[C@H](CC(C)C)C(=O)N[C@H]1C(=O)N[C@@H](CC(N)=O)C(=O)N[C@H]2C(=O)N[C@H]3C(=O)N[C@H](C(=O)N[C@H](C(=O)O)c4cc(O)cc(O)c4-c4cc3ccc4O)[C@H](O)c3ccc(c(Cl)c3)Oc3cc2cc(c3O[C@@H]2O[C@H](CO)[C@@H](O)[C@H](O)[C@H]2O[C@H]2C[C@](C)(N)[C@H](O)[C@H](C)O2)Oc2ccc(cc2Cl)[C@H]1O [Vancomycin] | – | – | – | yes | complex of low solubility forms (yes/no), polymer CMC-L [1]: yes
O=C1CC[C@@]2(O)[C@H]3Cc4ccc(O)c5c4[C@@]2(CCN3CC2CC2)[C@H]1O5 [Naltrexone] | no | no | yes | – | –
CCCCNc1ccc(C(=O)OCCN(C)C)cc1 [Tetracaine] | yes | yes | yes | – | –
[H]/N=C(/N)N[C@H]1[C@H](O)[C@@H](O)[C@H](O[C@@H]2O[C@@H](C)[C@](O)(C=O)[C@H]2O[C@@H]2O[C@@H](CO)[C@H](O)[C@@H](O)[C@@H]2NC)[C@@H](N/C(N)=N\[H])[C@@H]1O [Streptomycin] | – | – | yes | – | –
CN(C)[C@@H]1C(O)=C(C(N)=O)C(=O)[C@@]2(O)C(O)=C3C(=O)c4c(O)cccc4[C@@](C)(O)[C@H]3[C@H](O)[C@@H]12 [Oxytetracycline] | – | – | – | yes | complex of low solubility forms (yes/no), polymer CMC-L [1]: yes; complex of low solubility forms (yes/no), polymer CMC-M [1]: yes
CCN(CC)CCOC(=O)c1ccc(N)cc1 [Procaine] | – | – | yes | – | –
CCC(=O)C(CC(C)N(C)C)(c1ccccc1)c1ccccc1 (stereo not drawn) [Methadone] | no | no | yes | – | –
C[C@H]1c2cccc(O)c2C(=O)C2=C(O)[C@]3(O)C(=O)C(C(N)=O)=C(O)[C@@H](N(C)C)[C@@H]3[C@@H](O)[C@@H]21 [Doxycycline] | yes | yes | yes | – | –
NC[C@H]1O[C@H](O[C@H]2[C@H](O)[C@@H](O[C@H]3O[C@H](CO)[C@@H](O)[C@H](N)[C@H]3O)[C@H](N)C[C@@H]2N)[C@H](N)C[C@@H]1O [Tobramycin] | – | – | yes | – | –
